# Laboratory results reported in publication PMC10053059, “Intraocular siRNA Delivery Mediated by Penetratin Derivative to Silence Orthotopic Retinoblastoma Gene” (Pharmaceutics, 2023).
# Where no end group is shown, it is not given here.
# What was measured:
# ARPE-19 cells [1] = assay: Cellular uptake pathway, dual-label flow cytometry with uptake inhibitors; assay type: cell-based, Human; settings: ARPE-19, inhibitors of Table S1, n = 3 (Figure S4)
# Method: (§1) For quantitative analysis of cellular uptake of different formulations, ARPE-19 cells and WERI-Rb-1 cells in the logarithmic growth phase were inoculated in 12-well plates with 50,000 cells in each well (n = 3), as mentioned above. After being incubated with various formulations at a final concentration of 1 µg/mL siRNA, the cells were trypsinized with 0.25% trypsin-EDTA, collected in Eppendorf tubes, and centrifuged at 1000 rpm for 5 min. The precipitated cells were subsequently suspended, washed twice in 200 μL phosphate buffer saline (PBS), and analyzed using a flow cytometer (Beckman, Brea, CA, USA). The percentage of FAM-positive cells in total viable cells was defined as the uptake efficiency. The effects of various inhibitors on cellular uptake were also assessed.
# (§2) Table S1. Cellular uptake inhibitors and their function mechanisms
# (§3) Inhibitor Final Mechanism of action
# (§4) Filipin 20 μg/mL Bind to cholesterol on the cell membrane and inhibit endocytosis
# (§5) Mß-CD 300 μg/mL Deplete cholesterol and suppress endocytosis
# (§6) Genistein 20 μg/mL Inhibit lipid raft/caveolae mediated endocytosis
# (§7) Colchicine 20 μg/mL Inhibit pinocytosis by binding to tubulin to prevent microtubule
# (§8) Dynasore 20 μg/mL Inhibit […] in clathrin -mediated endocytosis
# (§9) Figure S1. Polyacrylamide gel electrophoresis of primary polyplexes siRNA/PA. The ratio is N/P
# (§10) of 3rd generation PAMAM to siRNA. […]
# WERI-Rb-1 cells = assay: as above; assay type: cell-based, Human; settings: WERI-Rb-1, inhibitors of Table S1, n = 3 (Figure S4)
# Method: as §1, §2, §3, §4, §5, §6, §7, §8, §9, §10
# ARPE-19 cells [2] = assay: Intracellular co-localization, laser scanning confocal microscopy; assay type: cell-based, Human; settings: ARPE-19, 1 µg/mL siRNA, serum-free medium, 4 h
# Method: ARPE-19 cells in the logarithmic growth phase were seeded in confocal dishes with a density of 5000 cells/well and incubated for 24 h with 5% CO2 at 37 °C. After administration with various polyplexes at a final concentration of 1 µg/mL siRNA, the cells were further cultured in serum-free medium for 4 h. Then, the cells were washed with 0.2% (m/v) heparin sodium solution three times, fixed with 4% (m/v) paraformaldehyde solution for 5 min, stained with 1 µg/mL 4’,6-diamidino-2-phenylindole (DAPI) solution for 10 min, and moisturized with 50% (v/v) glycerol.
# eyes, retina = settings: in vivo; cited from earlier work
# Text: We previously screened out penetratin from several of the most commonly reported cell-penetrating peptides based on the ex vivo permeability in excised cornea and in vivo ocular distribution. In a subsequent study, we optimized wild-type penetratin via amino acid mutation to further improve its permeability, and obtained a series of derivative peptides, which could be used as potential ocular absorption enhancers with low toxicity. […] Therefore, we chose 89WP to ...
Sequence,effect of uptake inhibitors on cellular uptake of single fluorescence-labeled material (ARPE-19 cells [1]),effect of uptake inhibitors on cellular uptake of single fluorescence-labeled material (WERI-Rb-1 cells),internalization by cells (confocal observation) (ARPE-19 cells [2]),"distribution in the eyes after topical instillation (eyes, retina)"
"RQIKIWFWWRRMKWKK [89WP-FAM, 5-carboxyfluorescein-labeled 89WP]",did not affect cellular uptake,did not affect cellular uptake,could be well internalized by the cells and distributed around the nuclei,
RQIKIWFWWRRMKWKK [89WP],,,,"showed more distribution in the eyes, especially in the retina"
